{
  "source": "ChEMBL document CHEMBL3885881",
  "about": "“DrugMatrix”",
  "organism": "Rattus norvegicus",
  "assay": "DrugMatrix - Regimen: Daily Repeat",
  "type": "toxicity, organism-based, Sprague-Dawley",
  "parameters": "regimen Daily Repeat, gender Male, age 6-8 weeks",
  "settings": "in vivo, po, 2000 mg/kg, route oral GAVAGE, dose level High, vehicle .5 % CMC; for ABSOLUTE BASOPHIL / ABSOLUTE EOSINOPHIL / ABSOLUTE LYMPHOCYTE / ABSOLUTE MONOCYTE / ABSOLUTE SEGMENTED NEUTROPHIL / BASOPHIL / EOSINOPHIL / ERYTHROCYTE COUNT / HEMATOCRIT / HEMOGLOBIN / LEUKOCYTE COUNT / LYMPHOCYTE / MEAN CORPUSCULAR HEMOGLOBIN / MEAN CORPUSCULAR HEMOGLOBIN CONCENTRATION / MEAN CORPUSCULAR VOLUME / MONOCYTE / NEUTROPHIL / NUCLEATED RED BLOOD CELLS / PLATELET COUNT: tissue Blood; for ALANINE AMINOTRANSFERASE / ALBUMIN / ALKALINE PHOSPHATASE / ASPARTATE AMINOTRANSFERASE / BLOOD UREA NITROGEN / CARBON DIOXIDE / CHLORIDE / CHOLESTEROL / CREATINE PHOSPHOKINASE / CREATININE / GLUCOSE / LACTATE DEHYDROGENASE / LIPASE / PHOSPHORUS / POTASSIUM / SODIUM / TOTAL BILIRUBIN / TOTAL PROTEIN / URIC ACID: tissue Plasma",
  "data": [
    {"smiles": "C[C@]12CCC(=O)C=C1CC[C@@H]1[C@@H]2CC[C@@]2(C)[C@H]1CC[C@]2(C)O", "note": "[METHYLTESTOSTERONE]", "values": [
      {"measurement": "ABSOLUTE BASOPHIL", "setting": "72 h, time 3 day", "value": 0, "unit": "CELLS/uL"},
      {"measurement": "ABSOLUTE EOSINOPHIL", "setting": "72 h, time 3 day", "value": 184, "unit": "CELLS/uL"},
      {"measurement": "ABSOLUTE LYMPHOCYTE", "setting": "72 h, time 3 day", "value": 15708.67, "unit": "CELLS/uL"},
      {"measurement": "ABSOLUTE MONOCYTE", "setting": "72 h, time 3 day", "value": 378.67, "unit": "CELLS/uL"},
      {"measurement": "ABSOLUTE SEGMENTED NEUTROPHIL", "setting": "72 h, time 3 day", "value": 2662, "unit": "CELLS/uL"},
      {"measurement": "BASOPHIL", "setting": "72 h, time 3 day", "value": 0, "unit": "%"},
      {"measurement": "EOSINOPHIL", "setting": "72 h, time 3 day", "value": 1, "unit": "%"},
      {"measurement": "ERYTHROCYTE COUNT", "setting": "72 h, time 3 day", "value": 6.47, "unit": "x10E6/uL"},
      {"measurement": "HEMATOCRIT", "setting": "72 h, time 3 day", "value": 38.33, "unit": "%"},
      {"measurement": "HEMOGLOBIN", "setting": "72 h, time 3 day", "value": 14.53, "unit": "G/DL"},
      {"measurement": "LEUKOCYTE COUNT", "setting": "72 h, time 3 day", "value": 18.93, "unit": "x10E3/uL"},
      {"measurement": "LYMPHOCYTE", "setting": "72 h, time 3 day", "value": 83, "unit": "%"},
      {"measurement": "MEAN CORPUSCULAR HEMOGLOBIN", "setting": "72 h, time 3 day", "value": 22.53, "unit": "pg"},
      {"measurement": "MEAN CORPUSCULAR HEMOGLOBIN CONCENTRATION", "setting": "72 h, time 3 day", "value": 37.97, "unit": "G/DL"},
      {"measurement": "MEAN CORPUSCULAR VOLUME", "setting": "72 h, time 3 day", "value": 59.27, "unit": "fL"},
      {"measurement": "MONOCYTE", "setting": "72 h, time 3 day", "value": 2, "unit": "%"},
      {"measurement": "NEUTROPHIL", "setting": "72 h, time 3 day", "value": 14, "unit": "%"},
      {"measurement": "NUCLEATED RED BLOOD CELLS", "setting": "72 h, time 3 day", "value": "0 /100WBC"},
      {"measurement": "PLATELET COUNT", "setting": "72 h, time 3 day", "value": 1292, "unit": "x10E3/uL"},
      {"measurement": "ALANINE AMINOTRANSFERASE", "setting": "72 h, time 3 day", "value": 50.33, "unit": "u/L"},
      {"measurement": "ALBUMIN", "setting": "72 h, time 3 day", "value": 3.93, "unit": "G/DL"},
      {"measurement": "ALKALINE PHOSPHATASE", "setting": "72 h, time 3 day", "value": 352.33, "unit": "u/L"},
      {"measurement": "ASPARTATE AMINOTRANSFERASE", "setting": "72 h, time 3 day", "value": 71.67, "unit": "u/L"},
      {"measurement": "BLOOD UREA NITROGEN", "setting": "72 h, time 3 day", "value": 13, "unit": "mg/dL"},
      {"measurement": "CARBON DIOXIDE", "setting": "72 h, time 3 day", "value": 27.67, "unit": "mmol/L"},
      {"measurement": "CHLORIDE", "setting": "72 h, time 3 day", "value": 101.33, "unit": "MEQ/L"},
      {"measurement": "CHOLESTEROL", "setting": "72 h, time 3 day", "value": 14.67, "unit": "mg/dL"},
      {"measurement": "CREATINE PHOSPHOKINASE", "setting": "72 h, time 3 day", "value": 215, "unit": "u/L"},
      {"measurement": "CREATININE", "setting": "72 h, time 3 day", "value": 0.25, "unit": "mg/dL"},
      {"measurement": "GLUCOSE", "setting": "72 h, time 3 day", "value": 123.33, "unit": "mg/dL"},
      {"measurement": "LACTATE DEHYDROGENASE", "setting": "72 h, time 3 day", "value": 352, "unit": "u/L"},
      {"measurement": "LIPASE", "setting": "72 h, time 3 day", "value": 7.33, "unit": "u/L"},
      {"measurement": "PHOSPHORUS", "setting": "72 h, time 3 day", "value": 10.83, "unit": "mg/dL"},
      {"measurement": "POTASSIUM", "setting": "72 h, time 3 day", "value": 6.24, "unit": "MEQ/L"},
      {"measurement": "SODIUM", "setting": "72 h, time 3 day", "value": 142.83, "unit": "MEQ/L"},
      {"measurement": "TOTAL BILIRUBIN", "setting": "72 h, time 3 day", "value": 0.5, "unit": "mg/dL"},
      {"measurement": "TOTAL PROTEIN", "setting": "72 h, time 3 day", "value": 5.53, "unit": "G/DL"},
      {"measurement": "URIC ACID", "setting": "72 h, time 3 day", "value": 1.17, "unit": "mg/dL"},
      {"measurement": "ABSOLUTE BASOPHIL", "setting": "120 h, time 5 day", "value": 0, "unit": "CELLS/uL"},
      {"measurement": "ABSOLUTE EOSINOPHIL", "setting": "120 h, time 5 day", "value": 0, "unit": "CELLS/uL"},
      {"measurement": "ABSOLUTE LYMPHOCYTE", "setting": "120 h, time 5 day", "value": 14176.33, "unit": "CELLS/uL"},
      {"measurement": "ABSOLUTE MONOCYTE", "setting": "120 h, time 5 day", "value": 40.33, "unit": "CELLS/uL"},
      {"measurement": "ABSOLUTE SEGMENTED NEUTROPHIL", "setting": "120 h, time 5 day", "value": 2783.33, "unit": "CELLS/uL"},
      {"measurement": "BASOPHIL", "setting": "120 h, time 5 day", "value": 0, "unit": "%"},
      {"measurement": "EOSINOPHIL", "setting": "120 h, time 5 day", "value": 0, "unit": "%"},
      {"measurement": "ERYTHROCYTE COUNT", "setting": "120 h, time 5 day", "value": 6.11, "unit": "x10E6/uL"},
      {"measurement": "HEMATOCRIT", "setting": "120 h, time 5 day", "value": 36.23, "unit": "%"},
      {"measurement": "HEMOGLOBIN", "setting": "120 h, time 5 day", "value": 13.97, "unit": "G/DL"},
      {"measurement": "LEUKOCYTE COUNT", "setting": "120 h, time 5 day", "value": 17, "unit": "x10E3/uL"},
      {"measurement": "LYMPHOCYTE", "setting": "120 h, time 5 day", "value": 83, "unit": "%"},
      {"measurement": "MEAN CORPUSCULAR HEMOGLOBIN", "setting": "120 h, time 5 day", "value": 22.9, "unit": "pg"},
      {"measurement": "MEAN CORPUSCULAR HEMOGLOBIN CONCENTRATION", "setting": "120 h, time 5 day", "value": 38.53, "unit": "G/DL"},
      {"measurement": "MEAN CORPUSCULAR VOLUME", "setting": "120 h, time 5 day", "value": 59.37, "unit": "fL"},
      {"measurement": "MONOCYTE", "setting": "120 h, time 5 day", "value": 0.33, "unit": "%"},
      {"measurement": "NEUTROPHIL", "setting": "120 h, time 5 day", "value": 16.67, "unit": "%"},
      {"measurement": "NUCLEATED RED BLOOD CELLS", "setting": "120 h, time 5 day", "value": "0.33 /100WBC"},
      {"measurement": "PLATELET COUNT", "setting": "120 h, time 5 day", "value": 1295.33, "unit": "x10E3/uL"},
      {"measurement": "ALANINE AMINOTRANSFERASE", "setting": "120 h, time 5 day", "value": 46, "unit": "u/L"},
      {"measurement": "ALBUMIN", "setting": "120 h, time 5 day", "value": 3.83, "unit": "G/DL"},
      {"measurement": "ALKALINE PHOSPHATASE", "setting": "120 h, time 5 day", "value": 370, "unit": "u/L"},
      {"measurement": "ASPARTATE AMINOTRANSFERASE", "setting": "120 h, time 5 day", "value": 60, "unit": "u/L"},
      {"measurement": "BLOOD UREA NITROGEN", "setting": "120 h, time 5 day", "value": 16.33, "unit": "mg/dL"},
      {"measurement": "CARBON DIOXIDE", "setting": "120 h, time 5 day", "value": 26, "unit": "mmol/L"},
      {"measurement": "CHLORIDE", "setting": "120 h, time 5 day", "value": 105, "unit": "MEQ/L"},
      {"measurement": "CHOLESTEROL", "setting": "120 h, time 5 day", "value": 28.33, "unit": "mg/dL"},
      {"measurement": "CREATINE PHOSPHOKINASE", "setting": "120 h, time 5 day", "value": 184.33, "unit": "u/L"},
      {"measurement": "CREATININE", "setting": "120 h, time 5 day", "value": 0.2, "unit": "mg/dL"},
      {"measurement": "GLUCOSE", "setting": "120 h, time 5 day", "value": 158.33, "unit": "mg/dL"},
      {"measurement": "LACTATE DEHYDROGENASE", "setting": "120 h, time 5 day", "value": 186.67, "unit": "u/L"},
      {"measurement": "LIPASE", "setting": "120 h, time 5 day", "value": 7.67, "unit": "u/L"},
      {"measurement": "PHOSPHORUS", "setting": "120 h, time 5 day", "value": 12.33, "unit": "mg/dL"},
      {"measurement": "POTASSIUM", "setting": "120 h, time 5 day", "value": 6.29, "unit": "MEQ/L"},
      {"measurement": "SODIUM", "setting": "120 h, time 5 day", "value": 149.6, "unit": "MEQ/L"},
      {"measurement": "TOTAL BILIRUBIN", "setting": "120 h, time 5 day", "value": 0.3, "unit": "mg/dL"},
      {"measurement": "TOTAL PROTEIN", "setting": "120 h, time 5 day", "value": 6.03, "unit": "G/DL"},
      {"measurement": "URIC ACID", "setting": "120 h, time 5 day", "value": 1.5, "unit": "mg/dL"}
    ]}
  ]
}
